Experimental data reported in patent US5770178A, “Metal chelate forming peptides and use thereof” (Nihon Medi-Physics Co., Ltd., priority 1994, dated 1998).
Where no end group is shown, it is not given here.

Key:
[1] = system: Tumor cells HEp2 (Human Epidermoid Carcinoma); test: Imaging of tumor in model mouse, tumor/muscle radioactivity ratio; assay type: in vivo, BALB/C nude mouse; conditions: i.v.
Experimental: Tumor cells HEp2 (5×10^6 cells, Human Epidermoid Carcinoma; ATCC No. CCL 23) were suspended in 1.0 ml of medium (Minimum essential medium (Eagle's) with Earle's BSS, 90% fetal bovine serum, 10%), and 100 μl of the suspension was subcutaneously injected to BALB/C nude mouse (6 weeks age) at the body side. […] Five and 20 minutes after the injection, the animal was imaged with a gamma camera.
Immediately after the imaging, the animal was sacrificed and examined for the distribution of the radioactivity in each organ using NaI single channel analyzer to determine a ratio of the radioactivity in tumor site to the radioactivity in muscle site (T/B ratio).

[2] = system: inflammation site (Staphylococcus aureus); conditions: S. aureus inflammation rat, i.v.
Experimental: Staphylococcus aureus 10^8 cells were suspended in 1 ml of physiological saline, and 100 μl of the suspension was intramuscularly administered to SD rats weighing about 220 g at the right calf. […] Thirty and 120 minutes after the peptide was injected, the animal was imaged with a gamma camera. Regions of interest were selected from the obtained image to determine a ratio T/B of the radioactivity in inflammation site (T) to the radioactivity in normal site (B).

Row | Substance | Imaging of tumor site (gamma camera) ([1]; 20 minutes after injection) | ratio of the radioactivity in tumor site to the radioactivity in muscle site (T/B ratio) ([1]; twenty minutes after injection, n=3) | Imaging of inflammation site (gamma camera) ([2]; 30 and 120 minutes after injection) | ratio T/B of the radioactivity in inflammation site (T) to the radioactivity in normal site (B) ([2]; regions of interest of image, n=6)
1 | Tc-99m-KYCAREPPTRTNAYWGQG (also: Tc-99m label) | clearly imaged | 4.50±0.71 |  | 
2 | Tc-99m-KYCGGKTKPREQQYNSTYRVV-NH2 |  |  | clearly imaged | 3.26±0.18
